Data reported in patent US10667478B1, “Metribuzin tolerance alleles in soybean” (Syngenta Participations AG, priority 2017, dated 2020).

Tested on: Soybean
Experiment: Metribuzin phytotoxicity screen of soybean lines in greenhouse pots
Type: in vivo, Glycine max
Details: applied after planting, scored 16 days later
Description: In the case of a visual metribuzin sensitivity detection system, a plant is rated for the percent of visual toxicity compared to a control plant which is sensitive to metribuzin.
Soybean seeds were planted two seeds per pot in two inch pots with clay loam soil (1.36 o.m.). Six replications were arranged in a Randomized Complete Block Design in a greenhouse. Metribuzin was applied at 560 grams active ingredient per hectare after planting. Sixteen days later plants were scored for visual phytotoxicity scored as percent injury.

SMILES: CSc1nnc(C(C)(C)C)c(=O)n1N [Metribuzin, metribuzin]
- Injury (%) @ 560 g ai/ha (soybean line A1036478): 0%
- Injury (%) @ 560 g ai/ha (soybean line AR1111926): 20%
- Injury (%) @ 560 g ai/ha (soybean line AR1112922): 0%
- Injury (%) @ 560 g ai/ha (soybean line AR1210100): 15%
- Injury (%) @ 560 g ai/ha (soybean line AR1210104): 45%
- Injury (%) @ 560 g ai/ha (soybean line AR1210856): 9%
- Injury (%) @ 560 g ai/ha (soybean line AR1210886): 0%
- Injury (%) @ 560 g ai/ha (soybean line AR1211262): 0%
- Injury (%) @ 560 g ai/ha (soybean line AR1211948): 44%
- Injury (%) @ 560 g ai/ha (soybean line BK1011572): 23%
- Injury (%) @ 560 g ai/ha (soybean line BK1211980): 17%
- Injury (%) @ 560 g ai/ha (soybean line BY1210428): 54%
- Injury (%) @ 560 g ai/ha (soybean line BY1211100): 49%
- Injury (%) @ 560 g ai/ha (soybean line BY1212083): 0%
- Injury (%) @ 560 g ai/ha (soybean line BY1212201): 3%
- Injury (%) @ 560 g ai/ha (soybean line BY1212223): 0%
- Injury (%) @ 560 g ai/ha (soybean line BY1213080): 0%
- Injury (%) @ 560 g ai/ha (soybean line CC1210319): 0%
- Injury (%) @ 560 g ai/ha (soybean line CC1211481): 12%
- Injury (%) @ 560 g ai/ha (soybean line CC1211818): 0%
- Injury (%) @ 560 g ai/ha (soybean line CC1212005): 35%
- Injury (%) @ 560 g ai/ha (soybean line CC1215412): 0%
- Injury (%) @ 560 g ai/ha (soybean line CC1215903): 0%
- Injury (%) @ 560 g ai/ha (soybean line CC1215927): 45%
- Injury (%) @ 560 g ai/ha (soybean line CC1217018): 0%
- Injury (%) @ 560 g ai/ha (soybean line CC1217019): 0%
- Injury (%) @ 560 g ai/ha (soybean line CE1210923): 0%
- Injury (%) @ 560 g ai/ha (soybean line CE1210997): 0%
- Injury (%) @ 560 g ai/ha (soybean line CE1211033): 37%
- Injury (%) @ 560 g ai/ha (soybean line CE1211109): 0%
- Injury (%) @ 560 g ai/ha (soybean line CE1211211): 14%
- Injury (%) @ 560 g ai/ha (soybean line CE1211264): 28%
- Injury (%) @ 560 g ai/ha (soybean line CE1211339): 0%
- Injury (%) @ 560 g ai/ha (soybean line CE1211377): 0%
- Injury (%) @ 560 g ai/ha (soybean line CE1211403): 0%
- Injury (%) @ 560 g ai/ha (soybean line CE1211693): 0%
- Injury (%) @ 560 g ai/ha (soybean line CE1212024): 0%
- Injury (%) @ 560 g ai/ha (soybean line CE1213779): 38%
- Injury (%) @ 560 g ai/ha (soybean line CE1214014): 47%
- Injury (%) @ 560 g ai/ha (soybean line CE1214443): 0%
- Injury (%) @ 560 g ai/ha (soybean line CE1214602): 0%
- Injury (%) @ 560 g ai/ha (soybean line CE1214610): 47%
- Injury (%) @ 560 g ai/ha (soybean line G01010146): 0%
- Injury (%) @ 560 g ai/ha (soybean line GO1110272): 54%
- Injury (%) @ 560 g ai/ha (soybean line GO1110602): 53%
- Injury (%) @ 560 g ai/ha (soybean line LL511): 92%
- Injury (%) @ 560 g ai/ha (soybean line LL513N): 2%
- Injury (%) @ 560 g ai/ha (soybean line LL563N): 5%
- Injury (%) @ 560 g ai/ha (soybean line LL595N): 96%
- Injury (%) @ 560 g ai/ha (soybean line NE0912640): 0%
- Injury (%) @ 560 g ai/ha (soybean line NE1212391): 0%
- Injury (%) @ 560 g ai/ha (soybean line NE1214412): 5%
- Injury (%) @ 560 g ai/ha (soybean line NE1214737): 0%
- Injury (%) @ 560 g ai/ha (soybean line NE1215099): 0%
- Injury (%) @ 560 g ai/ha (soybean line OW1011073): 11%
- Injury (%) @ 560 g ai/ha (soybean line OW1011829): 50%
- Injury (%) @ 560 g ai/ha (soybean line OW1012353): 17%
- Injury (%) @ 560 g ai/ha (soybean line OW1113014): 34%
- Injury (%) @ 560 g ai/ha (soybean line OW1210742): 45%
- Injury (%) @ 560 g ai/ha (soybean line OW1212626): 25%
- Injury (%) @ 560 g ai/ha (soybean line OW1213195): 28%
- Injury (%) @ 560 g ai/ha (soybean line OW1213207): 28%
- Injury (%) @ 560 g ai/ha (soybean line OW1213282): 23%
- Injury (%) @ 560 g ai/ha (soybean line OW1213323): 42%
- Injury (%) @ 560 g ai/ha (soybean line S77-T7): 23%
- Injury (%) @ 560 g ai/ha (soybean line S78-G6): 10%
- Injury (%) @ 560 g ai/ha (soybean line SJ1114205): 0%
- Injury (%) @ 560 g ai/ha (soybean line SJ1210059): 0%
- Injury (%) @ 560 g ai/ha (soybean line SJ1210512): 11%
- Injury (%) @ 560 g ai/ha (soybean line SJ1210526): 0%
- Injury (%) @ 560 g ai/ha (soybean line SJ1210678): 0%
- Injury (%) @ 560 g ai/ha (soybean line SJ1210829): 0%
- Injury (%) @ 560 g ai/ha (soybean line SJ1210844): 0%
- Injury (%) @ 560 g ai/ha (soybean line SJ1210862): 0%
- Injury (%) @ 560 g ai/ha (soybean line SJ1210867): 25%
- Injury (%) @ 560 g ai/ha (soybean line SJ1211190): 55%
- Injury (%) @ 560 g ai/ha (soybean line SJ1212283): 0%
- Injury (%) @ 560 g ai/ha (soybean line SJ1213014): 0%
- Injury (%) @ 560 g ai/ha (soybean line SJ1213512): 0%
- Injury (%) @ 560 g ai/ha (soybean line SJ1213805): 48%
- Injury (%) @ 560 g ai/ha (soybean line WN1116259): 0%
- Injury (%) @ 560 g ai/ha (soybean line WN1118256): 47%
- Injury (%) @ 560 g ai/ha (soybean line WN1118297): 0%
